Reference: ChEMBL document CHEMBL4152331, “Thiodipeptides targeting the intestinal oligopeptide transporter as a general approach to improving oral drug delivery” (Eur J Med Chem, 2018)
pKi: −log10 of the molar value.

Key:
[1] = Half life in rat liver homogenate at 0.5 mM after 24 hrs by HPLC analysis; type: ADME, tissue-based
Caco-2 = assay: Ratio of apparent permeability of FSA to compound in human Caco2 cells from apical to basolateral side at 2 mM after 1 hr by HPLC analysis; conditions: caco-2, 1 h, 2000 µM
[2] = biological target: T1, Solute carrier family 15 member 1 (Homo sapiens, UniProt P46059); assay: Ratio of substrate activity of FSA to compound at PepT1 in human Caco2 cells assessed as apparent permeability form apical to basolateral side at 2 mM in presence of Gly-Gln after 1 hr by HPLC analysis; conditions: caco-2, 1 h, 2000 µM
T1 sequence (P46059 whole entry): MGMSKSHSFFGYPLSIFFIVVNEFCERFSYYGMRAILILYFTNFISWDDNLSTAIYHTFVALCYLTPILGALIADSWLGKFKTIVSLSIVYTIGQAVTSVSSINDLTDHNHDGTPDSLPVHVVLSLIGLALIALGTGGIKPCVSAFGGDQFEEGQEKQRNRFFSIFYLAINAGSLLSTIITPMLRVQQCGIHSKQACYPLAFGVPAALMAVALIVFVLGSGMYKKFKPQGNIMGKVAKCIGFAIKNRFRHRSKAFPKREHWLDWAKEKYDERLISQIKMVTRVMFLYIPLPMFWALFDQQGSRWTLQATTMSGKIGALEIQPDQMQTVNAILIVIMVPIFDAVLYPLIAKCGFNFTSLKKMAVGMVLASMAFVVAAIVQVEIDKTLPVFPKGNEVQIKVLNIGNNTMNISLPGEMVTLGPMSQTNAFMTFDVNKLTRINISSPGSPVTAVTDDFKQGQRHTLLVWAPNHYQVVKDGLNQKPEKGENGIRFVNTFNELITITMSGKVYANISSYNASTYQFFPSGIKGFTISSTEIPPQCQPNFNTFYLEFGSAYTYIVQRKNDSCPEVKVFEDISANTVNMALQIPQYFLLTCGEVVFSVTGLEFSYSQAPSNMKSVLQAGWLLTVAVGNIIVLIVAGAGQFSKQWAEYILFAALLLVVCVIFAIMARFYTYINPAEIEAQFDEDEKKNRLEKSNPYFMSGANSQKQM

PepT1 = biological target: T2, PepT1 (Homo sapiens, UniProt P46059); assay: Substrate activity at PepT1 in human Caco2 cells assessed as apparent permeability form apical to basolateral side at 2 mM in presence of Gly-Gln after 1 hr by HPLC analysis; conditions: Caco-2, with Gly-Gln
T2 sequence (P46059 whole entry): T1 sequence (P46059 whole entry)

Rattus norvegicus [3] = assay: Cmax in Sprague-Dawley rat assessed as ibuprofen release level at 10 mg/kg, po by LC-MS/MS analysis; conditions: in vivo
Rattus norvegicus [4] = assay: Relative bioavailability in Sprague-Dawley rat assessed as ibuprofen release level at 10 mg/kg, po by LC-MS/MS analysis; conditions: in vivo
Rattus norvegicus [5] = assay: AUC in Sprague-Dawley rat assessed as ibuprofen release level at 10 mg/kg, po by LC-MS/MS analysis; conditions: in vivo
Rattus norvegicus [6] = assay: Tmax in Sprague-Dawley rat assessed as ibuprofen release level at 10 mg/kg, po by LC-MS/MS analysis; conditions: in vivo
[7] = Apparent permeability of the compound in human Caco2 cells from apical to basolateral side at 2 mM after 1 hr by HPLC analysis; conditions: Caco-2
[8] = biological target: T3, Solute carrier family 15 member 1 (Oryctolagus cuniculus, UniProt P36836); assay: Binding affinity to rabbit PepT1 expressed in Xenopus laevis oocytes assessed as inhibition of [3H]-D-Phe-L-Gln uptake by Michaelis-Menten kinetics analysis; type: ADME, cell-based
T3 sequence (P36836 whole entry): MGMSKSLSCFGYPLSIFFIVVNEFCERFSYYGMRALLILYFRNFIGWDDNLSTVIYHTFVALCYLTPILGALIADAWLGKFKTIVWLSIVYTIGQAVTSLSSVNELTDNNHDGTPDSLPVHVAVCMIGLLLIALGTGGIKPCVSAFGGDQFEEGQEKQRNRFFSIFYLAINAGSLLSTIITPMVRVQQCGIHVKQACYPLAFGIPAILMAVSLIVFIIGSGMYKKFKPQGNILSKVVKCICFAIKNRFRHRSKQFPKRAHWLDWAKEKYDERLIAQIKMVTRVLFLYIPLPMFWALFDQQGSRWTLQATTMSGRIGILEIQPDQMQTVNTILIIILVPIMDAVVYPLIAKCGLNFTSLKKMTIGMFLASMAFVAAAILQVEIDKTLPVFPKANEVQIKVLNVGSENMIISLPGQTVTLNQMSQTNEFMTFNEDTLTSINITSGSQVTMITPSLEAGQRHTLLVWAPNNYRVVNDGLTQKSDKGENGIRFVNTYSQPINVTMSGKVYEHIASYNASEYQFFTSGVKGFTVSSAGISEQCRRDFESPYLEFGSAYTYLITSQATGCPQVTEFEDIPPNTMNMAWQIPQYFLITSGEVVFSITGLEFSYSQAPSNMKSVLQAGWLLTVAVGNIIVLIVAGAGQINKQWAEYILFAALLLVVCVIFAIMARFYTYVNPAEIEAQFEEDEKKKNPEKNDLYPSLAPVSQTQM

Rattus norvegicus [9] = assay: Bioavailability in Sprague-Dawley rat at 6 mg/kg, po by LC-MS/MS analysis; conditions: in vivo
[10] = Stability of the compound in pH 5.5 buffer; type: physicochemical

Work on `CC(C)Cc1ccc([C@@H](C)C(=O)OC[C@H](NC(=S)[C@H](C)N)C(=O)O)cc1` yielded a half-life at 500 µM [1] of 17.9 h, a Ratio (Caco-2) of 1.29 and a Ratio [2] of 1.07. For the same compound, the Papp A→B at 1 h, 2000 µM (PepT1) was 2.1 ×10⁻⁶ cm/s, the Cmax (Rattus norvegicus [3]) was 200 ng/mL and the F (Rattus norvegicus [4]) was 2.8%. For the same compound, the AUC (Rattus norvegicus [5]) was 700 ng·h/mL and the Tmax (Rattus norvegicus [6]) was 3.2 h.

`C[C@H](N)C(=S)N[C@@H](COC(=O)CC1(CN)CCCCC1)C(=O)O` gave a Ratio (Caco-2) of 0.46, a Ratio [2] of 0.69 and a Papp A→B at 1 h, 2000 µM (PepT1) of 0.4 ×10⁻⁶ cm/s.

With `C[C@H](NC(=O)[C@@H](N)Cc1ccccc1)C(N)=S` the Papp A→B at 1 h, 2000 µM (PepT1) was 1.9 ×10⁻⁶ cm/s.

With `COc1ccc2cc(CC/C(C)=N/OCCOC(=O)C[C@H](NC(=S)[C@H](C)N)C(=O)O)ccc2c1` the Ratio (Caco-2) was 1.94, the Papp A→B at 1 h, 2000 µM [7] was 9.7 ×10⁻⁶ cm/s and the Ratio [2] was 1.3. The Papp A→B at 1 h, 2000 µM (PepT1) was 4.4 ×10⁻⁶ cm/s and the pKi ([8]; read-out: Ki) was 4.10.

Compound `CC(C)c1cccc(C(C)C)c1OC(=O)C[C@H](NC(=S)[C@H](C)N)C(=O)O` has a half-life at 500 µM [1] of 7.3 h, a Ratio (Caco-2) of 0.41 and a Papp A→B at 1 h, 2000 µM [7] of 0.5 ×10⁻⁶ cm/s. It also gave a Ratio [2] of 0.89 and a Papp A→B at 1 h, 2000 µM (PepT1) of 0.5 ×10⁻⁶ cm/s.

Work on `CC(C)Cc1ccc(C(C)C(=O)O)cc1` (configuration not stated) [IBUPROFEN] yielded an F (Rattus norvegicus [9]) of 100%.

In the case of `C[C@H](N)C(=S)N[C@@H](CC(=O)OCCOCn1cnc2c(=O)[nH]c(N)nc21)C(=O)O`, the Stability [10] was “Unstable” and the Ki [8] was “Nd(Unstable)”.

For `CC(=O)Oc1ccccc1C(=O)OCCOCCOCCOC(=O)C[C@H](NC(=S)[C@H](C)N)C(=O)O`, the Stability [10] was “Unstable” and the Ki [8] was “Nd(Unstable)”.
